In patent US20120108592A1, “PHARMACEUTICAL COMPOSITIONS AND METHODS OF USE OF SALICYLANILIDES FOR TREATMENT OF HEPATITIS VIRUSES” (priority 2010, published 2012):
pEC50: −log10 of the molar value. Where “and” joins values, the source holds several entries; their conditions need not be identical. Equal entries are not always repeated. Entries after “also recorded” stand apart in the source; their conditions may differ. Where two headings read alike, the source gives them in different places.

Columns and labels:
[1] = Secondary HCV replicon cell assay genotype 1a, cytotoxicity (neutral red dye uptake); format: cell-based; details: human
Experimental: (§4) Antiviral activity of test compounds was assessed in a 3-day assay using the stably-expressing HCV replicon cell line, AVA5 (sub-genomic CONI, genotype 1b) [Korba, B. E. et al. Antiviral Res. 77, 56-63 (2008); Blight et al., Science 290, 1972-1974 (2000)] maintained as sub-confluent cultures on 96-well plates as previously described [Okuse et al., Antiviral Research 65, 23-34 (2005)]. Antiviral activity was determined by blot hybridization analysis of intracellular HCV RNA (normalized to the level of cellular B-actin RNA in each culture sample) and cytotoxicity was assessed by neutral red dye uptake after 3 days of treatment. Additional studies were performed using Huh7 cells containing another HCV replicon, H/FL-Neo, a genotype la full length construct [Blight et al., J. Virol. […] For studies involving human serum, standard culture medium (which contains 10% fetal bovine serum) and assay conditions were maintained.

[2] = system: HCV replicon cell line, AVA5 (sub-genomic CONI, genotype 1b); experiment: Secondary HCV replicon cell assay genotype 1b, antiviral activity; format: cell-based; details: Hepatitis C virus; for pEC50: 2-fold depression of intracellular HCV RNA; for EC90: 10-fold depression of intracellular HCV RNA
Experimental: (§1) Antiviral activity of test compounds was assessed in a 3-day assay using the stably-expressing HCV replicon cell line, AVA5 (sub-genomic CONI, genotype 1b) [Korba, B. E. et al. Antiviral Res. 77, 56-63 (2008); Blight et al., Science 290, 1972-1974 (2000)] maintained as sub-confluent cultures on 96-well plates as previously described [Okuse et al., Antiviral Research 65, 23-34 (2005)]. Antiviral activity was determined by blot hybridization analysis of intracellular HCV RNA (normalized to the level of cellular B-actin RNA in each culture sample) and cytotoxicity was assessed by neutral red dye uptake after 3 days of treatment. Additional studies were performed using Huh7 cells containing another HCV replicon, H/FL-Neo, a genotype la full length construct [Blight et al., J. Virol. 77, 3181-3190 (2003)]. For studies involving human serum, standard culture medium (which contains 10% fetal bovine serum) and assay conditions were maintained.
(§2) EC50, EC90 and CC50 values (±standard deviations [S.D.]) were calculated by linear regression analysis using data combined from all treated cultures (Korba, B. E. et al. Antiviral Res. 77, 56-63 (2008)). […] Selectivity index (S.I.) was calculated as CC50/EC90 for HBV assays and CC50/EC50 for HCV assays.

[3] = system: HCV replicon H/FL-Neo, genotype 1a full length construct, in Huh7 cells; experiment: Secondary HCV replicon cell assay genotype 1a, antiviral activity; format: cell-based; details: Hepatitis C virus; for pEC50: Huh-7, 2-fold depression of intracellular HCV RNA; for EC90: Huh-7, 10-fold depression of intracellular HCV RNA
Experimental: as §1, §2

[4] = Primary HCV replicon cell assay, cytotoxicity (neutral red dye uptake); format: cell-based; details: human, 3 days of treatment
Experimental: as §4

[5] = Secondary HCV replicon cell assay genotype 1b, cytotoxicity (neutral red dye uptake); format: cell-based; details: human
Experimental: as §4

[6] = system: HCV replicon cell line, AVA5 (sub-genomic CONI, genotype 1b); experiment: Primary HCV replicon cell assay, antiviral activity (intracellular HCV RNA, blot hybridization); format: cell-based; details: Hepatitis C virus, Ava5, 72 h, 3-day assay; for pEC50: 2-fold depression of intracellular HCV RNA; for EC90: 10-fold depression of intracellular HCV RNA
Experimental: as §1, §2

[7] = system: J6/JFH-1 HCV (genotype 2a) in Huh 7.5 cells; experiment: Infectious genotype 2a HCV cell culture assay (RT-PCR viral load); format: cell-based, hepatitis C virus (HCV); details: genotype G2a; for inhibition of J6/JFH-1 HCV replication: 1 μM test concentration; for relative activity / potency versus NTZ: at 1 μM, % of NTZ
Experimental: (§3) Genotype 2a antiviral assays were conducted as previously described [Broering R. et al., Gut, 59, 1111-1119 (2010)]. […] Cell viability was determined using the Calcein assay kit (Biotium, Inc. Hayward, Calif., USA). The alternate method for measuring cell cytotoxicity was via the Guava Technologies ViaCount assay (Millipore) The ViaCount Assay provides rapid and reliable determinations of viability and total cell count. It distinguishes viable and non-viable cells based on differential permeabilities of two DNA-binding dyes in the Guava ViaCount® Reagent. The nuclear dye stains only nucleated cells, while the viability dye brightly stains dying cells. This combination of dyes enables the Guava ViaCount Assay to distinguish viable, apoptotic, and dead cells. Debris is excluded from results based on negative staining with the nuclear dye.
HCV replication levels were determined by RT-PCR on RNA from cell culture supernatants. J6-infected Huh 7.5 cells were seeded in 12-well plates at a density of 2.0E5 cells/well in 1.5 mL of DMEM supplemented with 10% FBS and 1% Pen/Strep. […] A positive control of IFN-α at concentrations of 10 IU/mL and 50 IU/mL, negative control wells containing mock incubations of DMEM with 1 uL and 10 uL (the same volume of the molecular compounds at 1 uM and 10 uM, respectively) of DMSO was included to rule out nonspecific effects of DMSO on the cells, and J6-infected with only DMEM were used as negative controls. A final control group consisted of un-infected Huh 7.5 cells, plated at the same time and density as the J6-infected cells on a separate plate. 48 hours and 120 hours after incubation with thiazolides, the media was collected and frozen, cells were washed 2× with PBS, and lysed in 500 uL of lysis buffer per well. Following lysis, RNA was extracted from the cells using the RNAqueous-4PCR Kit from Ambion, and the RNA concentration determined using the Nanoprop® machine. Reverse-transcription reactions produced 1.5 μg of cDNA per sample, which was then used for rt-PCR to quantify the HCV viral load in each sample. Analysis of the rt-PCR results generated the fold increases and decreases of the HCV viral load in comparison to untreated J6 cells.

[8] = system: Huh 7.5 cells; experiment: Cytotoxicity in Huh 7.5 cells (Calcein / ViaCount assay); format: cell-based
Experimental: as §3

[9] = system: HBV virion in 2.2.15 cells; experiment: HBV antiviral assay in 2.2.15 cells, virion (VIR) HBV DNA; format: cell-based; details: Hepatitis B virus; for pEC50: read-out: EC50 (VIR); for EC90: read-out: EC90 (VIR)
Experimental: (§5) HBV antiviral assays were conducted as previously described [Korba, B. E. et al. Antiviral Res. 77, 56-63 (2008);].

[10] = Cytotoxicity in 2.2.15 cells (neutral red dye uptake); format: cell-based; details: human, nine daily doses
Experimental: Briefly, confluent cultures of 2.2.15 cells were maintained on 96-well flat-bottomed tissue culture plates (confluence in this culture system is required for active, high levels of HBV replication equivalent to that observed in chronically-infected individuals. Cultures were treated with nine consecutive daily doses of the test compounds. HBV DNA levels were assessed by quantitative blot hybridization 24 hr. after the last treatment. Cytotoxicity was assessed by uptake of neutral red dye 24 hr. following the last treatment.

[11] = system: Huh7 cells containing H/FL-Neo replicon; experiment: Secondary HCV replicon cell assay genotype 1a, cytotoxicity (neutral red dye uptake); format: cell-based
Experimental: as §4

[12] = system: AVA5 HCV replicon cell line; experiment: Secondary HCV replicon cell assay genotype 1b, cytotoxicity (neutral red dye uptake); format: cell-based
Experimental: as §4

[13] = cited from earlier work
[14] = system: HBV replication intermediates in 2.2.15 cells; experiment: HBV antiviral assay in 2.2.15 cells, replication intermediates (RI) HBV DNA; format: cell-based; details: Hepatitis B virus; for pEC50: read-out: EC50 (RI)
Experimental: as §5

[15] = system: AVA5 HCV replicon cell line; experiment: Primary HCV replicon cell assay, cytotoxicity (neutral red dye uptake); format: cell-based; details: 3 days of treatment
Experimental: as §4

[16] = system: cytochrome P450 enzymes; details: cited from earlier work
[17] = AVA5 HCV replicon cells (sub-genomic CON1, genotype 1b)
[18] = AVA5 HCV replicon cells (sub-genomic CON1)
[19] = HBV virion DNA, 2.2.15 cells, nine daily doses

SMILES	CC50 at 3 days [1]	pEC50 [2]	EC90 [2]	pEC50 [3]	EC90 [3]	CC50 at 3 days [4, 17]	CC50 at 3 days [5, 18]	pEC50 [6]	EC90 [6]	inhibition of J6/JFH-1 HCV replication [7]	relative activity / potency versus NTZ [7]	cytotoxic effect in Huh 7.5 cells [8]	pEC50 [9, 19]	CC50 at 9 days [10]	other results
O=C(Nc1cccc(F)c1)c1ccccc1O [Compound 3, N-(3-fluorophenyl)-2-hydroxybenzamide]	9900 nM	6.22	2600 nM	6.38	3300 nM	> 100000 nM	11000 nM	6.09	2700 nM	shown to inhibit J6/JFH-1HCV replication	65%	None of these compounds showed a cytotoxic effect			
O=C(Nc1cc(C(F)(F)F)ccc1Cl)c1ccccc1O [Compound 41, N-(2-chloro-5-(trifluoromethyl)phenyl)-2-hydroxybenzamide]	680 nM	7.35	177 nM	7.26	244 nM	330 nM	790 nM	8.30	32 nM				5.43	> 100000 nM	EC90 [9, 19]: 13000 nM
COC(=O)c1ccc(NC(=O)c2ccccc2OC(C)=O)cc1 [Compound 44, methyl 4-(2-acetoxybenzamido)benzoate]	7500 nM	6.46	4500 nM	6.52	5100 nM	4400 nM	6800 nM	7.24	461 nM	shown to inhibit J6/JFH-1HCV replication	53%	None of these compounds showed a cytotoxic effect			
CC(=O)Oc1ccccc1C(=O)Nc1ncc([N+](=O)[O-])s1 [NTZ, nitazoxanide, reference compound]		6.60	950 nM	6.48	1100 nM			6.68	977 nM	demonstrated efficacy with regards to HCV replication; also recorded: shown to inhibit J6/JFH-1HCV replication		without being cytotoxic; also recorded: None of these compounds showed a cytotoxic effect	6.92	> 100000 nM	CC50 [11]: 49000 nM; CC50 at 3 days [4]: 31000 nM; CC50 [12]: 35000 nM; detection in plasma ([13]; after oral 500 mg NTZ tablet): not detected in plasma; pEC50 ([14]; HBV replication intermediates, 2.2.15 cells, nine daily doses): 6.23
O=C(Nc1ncc([N+](=O)[O-])s1)c1ccccc1O [TIZ, tizoxanide, reference compound]	27000 nM	6.72	920 nM	6.64	1000 nM			6.82	813 nM					> 100000 nM	CC50 [15]: 15000 nM; pEC50 [9]: 6.82; EC90 [9]: 580 nM; CC50 at 3 days [5]: 28000 nM; fraction of oral dose excreted in feces as TIZ ([13]; oral dose of NTZ): Approximately two-thirds; maximum serum concentration of TIZ ([13]; oral, one 500 mg NTZ tablet (Alinia) with food): approximately 10 μg/mL and ~37 μM; elimination half-life from plasma ([13]; plasma): approximately 1.5 hours; inhibition of cytochrome P450 enzymes [16]: does not inhibit; pEC50 [14]: 6.34; EC90 ([14]; read-out: EC90 (RI)): 1200 nM
